Data reported in article PMC5361079 (Scientific Reports, 2017).

What was measured:
[1] = test system: conscious, male rhesus monkeys; details: intravenous infusion of MK-3682 after AMIO pretreatment; cited from earlier work
hiPSC-CM syncytia = assay: Spontaneous FP rate and IMP amplitude/beating rate in hiPSC-CM syncytia (RTCA CardioECR / RTCA Cardio); assay type: cell-based, human; details: prodrug co-administered with 0.3 μM amiodarone, steady state (4 h), spontaneously beating hiPSC-CM syncytia
Description: hiPSC-CMs (iCells®) from Cellular Dynamics International (CDI, Madison, WI, USA) were seeded onto 48-well CardioECR or 96-well Cardio E-Plates® (ACEA Biosciences Inc., San Diego, CA, USA) coated with 10 μg/mL fibronectin (Sigma Aldrich, Catalog# F1141) at 30,000 cells/well, following manufacturer’s recommendations. Cells were maintained in culture (37 °C, 5% CO2) for a period of 14 days with iCell Maintenance® media (CDI, Madison, WI, USA) exchanged every 2–3 days. Compound addition was only performed on or after Day 14 following cell seeding.
Compound stock solutions were prepared in 100% DMSO or H2O. On the day of compound addition, the media was exchanged with fresh iCell Maintenance® media and allowed to equilibrate for at least 3 h in the incubator. The plates were read on an xCELLigence® RTCA CardioECR or RTCA Cardio (ACEA Biosciences Inc., San Diego, CA, USA). Control pre-reads to establish a baseline were recorded for at least 45 minutes (4 reads at 15-min intervals) prior to compound addition. The compound stock solutions were diluted into iCell Maintenance® media and quickly added to the plate. The plate was continuously monitored for at least 18 h following compound addition. IMP data were sampled at 12 ms (83 Hz), while FP rate data were collected at 0.1 ms (10 KHz). Attachment, growth and viability of syncytia were monitored by means of the baseline IMP signal, as previously described. IMP and FP signals were only interpreted if the baseline IMP was maintained throughout the measurement period (usually ≤18 hrs) at ≥70% of the value before test compound application (pre-read value).

hiPSC-CMs = assay: Intracellular prodrug, cleavage intermediate metabolite and NTP metabolite concentrations in hiPSC-CMs; assay type: in vitro ADME, human; details: hiPSC-CMs; for Intracellular Concentration, Cleavage Intermediate Metabolite / Intracellular Concentration, NTP Metabolite: BLOQ = below 17 pmol/million cells
Description: Approximately 18 h before dosing, iCell hiPSC-CMs were switched to iCell cardiomyocyte maintenance media free of Penicillin/Streptomycin. […] […] After the corresponding treatment, cells were washed 2x with 200 μL of ice-cold magnesium- and calcium-free PBS buffer. Cells were then lysed in 100 μL of ice-cold lysis solution (70/30 methanol/water containing 20 mM EDTA and 20 mM EGTA, pH 8) by pipetting up and down 5 times. Plates were sealed and transferred on dry ice for determination of prodrug, cleavage intermediate metabolite, and NTP metabolite concentrations. Intracellular prodrug concentrations were measured using a reversed phase HPLC- high resolution mass spectrometry method. A dimethylhexylamine based ion-pairing HPLC-MS/MS method was used to measure intracellular cleavage intermediate metabolite and NTP metabolite concentrations. Intracellular concentrations (pmol/million cells) of prodrug, cleavage intermediate metabolite, and NTP metabolite were quantitated against calibration standards of the same analytes prepared from control iCell hiPSC-CM lysates.
For prodrug analyses, full scan high resolution mass spectrometry data was collected using an Exactive™ Orbitrap mass spectrometer with an electrospray source operated in the positive ion mode. Prodrug chromatograms were extracted from full scan high resolution mass spectrometry data for the masses indicated in Supplementary Table 5. Absence of endogenous interference(s) was verified by extracting the same ion from full scan high resolution mass spectrometry chromatograms of unspiked control cell lysates. For the cleavage intermediate metabolite and NTP metabolite an electrospray MS/MS method run on a SCIEX API 4000 mass spectrometer with turboV ionspray source was used in negative ion mode monitoring the transitions indicated in Supplementary Table 5. Absence of endogenous interference(s) was verified by monitoring of the same MRM transitions for unspiked control cell lysates. Measured intracellular prodrug, cleavage intermediate metabolite, and NTP metabolite concentrations (in pmol/million cells units) were tabulated (Table 2).

[2] = 10 μM prodrug + 0.3 μM amiodarone, 4 Hours
[3] = 10 μM prodrug + 0.3 μM amiodarone, 30 Min

CC(C)OC(=O)[C@@H](C)NP(=O)(OC[C@H]1O[C@@H](n2ccc(=O)[nH]c2=O)[C@](C)(Cl)[C@@H]1O)Oc1ccccc1 (stereo partly drawn) [MK-3682, isopropyl (2R)-2-[[[(2R,3R,4R,5R)-4-chloro-5-(2,4-dioxopyrimidin-1-yl)-3-hydroxy-4-methyl-tetrahydrofuran-2-yl]methoxy-phenoxy-phosphoryl]amino]propanoate]
Bradycardia and bradyarrhythmia [1]: not observed | Effect on FP rate (hiPSC-CM syncytia): lack of effects | Effect on IMP amplitude (hiPSC-CM syncytia): lack of effects | Intracellular Concentration, Prodrug (hiPSC-CMs; [2]): 91.9 ± 12.4 pmol/million cells | Intracellular Concentration, Cleavage Intermediate Metabolite (hiPSC-CMs; [2]): BLOQ | Intracellular Concentration, NTP Metabolite (hiPSC-CMs; [2]): BLOQ | Intracellular Concentration, Prodrug (hiPSC-CMs; [3]): 95.0 ± 6.7 pmol/million cells | Intracellular Concentration, Cleavage Intermediate Metabolite (hiPSC-CMs; [3]): BLOQ | Intracellular Concentration, NTP Metabolite (hiPSC-CMs; [3]): BLOQ | Intracellular Concentration, Prodrug (hiPSC-CMs; 10 μM prodrug alone, 4 Hours): 100.4 ± 13.2 pmol/million cells | Intracellular Concentration, Cleavage Intermediate Metabolite (hiPSC-CMs; 10 μM prodrug alone, 4 Hours): BLOQ | Intracellular Concentration, NTP Metabolite (hiPSC-CMs; 10 μM prodrug alone, 4 Hours): BLOQ | Intracellular Concentration, Prodrug (hiPSC-CMs; 10 μM prodrug alone, 30 Min): 89.8 ± 12.9 pmol/million cells | Intracellular Concentration, Cleavage Intermediate Metabolite (hiPSC-CMs; 10 μM prodrug alone, 30 Min): BLOQ | Intracellular Concentration, NTP Metabolite (hiPSC-CMs; 10 μM prodrug alone, 30 Min): BLOQ
